# Measurements reported in patent US10793576B2, “Compound used as Bruton's tyrosine kinase inhibitor and preparation method and application thereof” (Chengdu Brilliant Pharmaceutical Co., LTD., priority 2017, dated 2020).
# pIC50: −log10 of the molar value.
# Assays:
# BTK kinase = BTK kinase (Homo sapiens (Human), UniProt Q06187); assay: In vitro assay for the inhibition of BTK kinase activity (Mobility-Shift Assay); assay type: biochemical
# Description: Mobility-Shift Assay, which is microfluidic chip technology, applies the basic concept of capillary electrophoresis to microfluidic environments. The substrate used for the experiment is a polypeptide with a fluorescent label. Under the action of enzyme in the reaction system, the substrate is transformed into a product, and the charge the substrate carries also changes accordingly. The use of the charge difference between the substrate and the product involved in Mobility-Shift Assay achieves the separating of the two, and they are tested respectively. The test results are expressed by conversion rates.
# (3) 100% DMSO was added to the positive control well and the negative control well, respectively;
# TMD8 cells = assay: Cell proliferation inhibition in vitro, TMD8 cells by CCK-8 method; assay type: cell-based; conditions: Homo sapiens, 72 hours, read-out: Inhibitions of cell activities IC50 (nM) TMD8
# Protocol: (§1) Test Example 2: Determination of the Inhibition of Cell Proliferation Inhibitory Activity in
# (§2) vitro of compounds using different cell lines
# (§3) 2: Preparation of the Compounds:
# (§4) The compounds to be tested were diluted with DMSO to prepare a mother liquor at a final concentration of 10 mM for later use.
# (§5) 3.1. Test of TMD8 and OCI-ly10 Cells by CCK-8 Method
# (§6) Logarithmic growth phase cells were collected, counted and resuspended in complete medium. The cell concentration was adjusted to a suitable concentration (determined according to the cell density optimization test results), and seeded to 96-well plate and 100 μl of the cell suspension was added to each well. The cells were incubated in an incubator at 37° C., 100% relative humidity and 5% C02 for 24 hours.
# (§7) The compounds to be tested were diluted with the medium to the set corresponding action concentration, and the cells were added at 25 µl/well. The cells were incubated in an incubator at 37° C., 100% relative humidity and 5% C02 for 72 hours.
# (§8) The medium was aspirated and discarded, and a complete medium containing 10% of the test reagent was added and the obtained system was incubated in a 37° C. incubator for 1 hour-4 hours.
# (§9) As: OA of the sample (cell+test reagent+test compound)
# (§10) Ac: OA of the negative control (cell+test reagent+DMSO)
# (§11) Ab: OA of the positive control (medium+test reagent+DMSO)
# (§12) IC50 curve fitting was performed using the software Graphpad Prism 5 or XLfit and IC50 values were calculated.
# OCI-LY10 cells = assay: Cell proliferation inhibition in vitro, OCI-ly10 cells by CCK-8 method; assay type: cell-based; conditions: Homo sapiens, 72 hours, read-out: Inhibitions of cell activities IC50 (nM) OCI-LY10
# Protocol: as §1, §2, §3, §4, §5, §6, §7, §8, §9, §10, §11, §12
# DOHH2 cells = assay: Cell proliferation inhibition in vitro, DOHH2 cells by CTG assay; assay type: cell-based; conditions: Homo sapiens, DOHH-2, 72 hours, read-out: Inhibitions of cell activities IC50 (nM) DOHH2
# Protocol: as §1, §2, §3, §4
# 3.2 Test of DOHH2 Cells by CTG Assay
# as §6
# The compounds to be tested were diluted with the medium to the set corresponding action concentration, and the cells were added at 10 µl/well. The cells were incubated in an incubator set at 37° C., 100% relative humidity and 5% C02 for 72 hours.
# The medium was aspirated and discarded, and 30 μl of test reagent was added. The plate was gentle shaken away from the light to lyse the cells.
# as §9, §10, §11, §12
# Chain of BTK kinase (Q06187 whole entry): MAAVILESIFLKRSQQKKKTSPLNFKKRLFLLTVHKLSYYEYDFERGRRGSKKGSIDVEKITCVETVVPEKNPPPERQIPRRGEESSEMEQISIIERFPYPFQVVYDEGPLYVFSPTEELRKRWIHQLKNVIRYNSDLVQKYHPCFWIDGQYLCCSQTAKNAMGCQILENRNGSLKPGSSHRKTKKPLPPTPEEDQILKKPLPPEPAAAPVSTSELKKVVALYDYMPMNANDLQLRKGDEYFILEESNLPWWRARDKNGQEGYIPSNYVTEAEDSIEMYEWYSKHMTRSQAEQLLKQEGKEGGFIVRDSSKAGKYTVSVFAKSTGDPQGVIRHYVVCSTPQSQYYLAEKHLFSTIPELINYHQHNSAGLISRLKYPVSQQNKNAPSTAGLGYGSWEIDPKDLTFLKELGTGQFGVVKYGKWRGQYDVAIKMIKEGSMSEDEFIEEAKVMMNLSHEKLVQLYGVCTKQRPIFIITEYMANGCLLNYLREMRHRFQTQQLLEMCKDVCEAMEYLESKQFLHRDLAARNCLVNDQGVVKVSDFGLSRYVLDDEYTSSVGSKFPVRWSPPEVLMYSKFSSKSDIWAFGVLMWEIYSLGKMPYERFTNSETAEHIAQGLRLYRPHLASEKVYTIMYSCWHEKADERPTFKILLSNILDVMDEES
SMILES,pIC50 (BTK kinase),IC50 (TMD8 cells) [nM],IC50 (OCI-LY10 cells) [nM],IC50 (DOHH2 cells) [nM]
"C=CC(=O)N1CC2(CC2)C[C@H]1c1nc(-c2ccc(C(C)(O)c3ccccc3)cc2)c2c(N)nccn12 (stereo partly drawn) [Example 74, 1-((6S)-6-(8-amino-1-(4-(1-hydroxy-1-phenylethyl)phenyl)imidazo[1,5-a]pyrazin-3-yl)-5-azaspiro[2.4]heptan-5-yl)prop-2-en-1-one]",7.62,9.7,3.5,72
C=CC(=O)N1C2C[C@@H](C1c1nc(-c3ccc(C(=O)Nc4cc(C(F)(F)F)ccn4)cc3)c3c(N)nccn13)N(C(C)=O)C2 (stereo partly shown) [Example 56],8.37,5.9,3.4,74
"CC#CC(=O)N1[C@@H]2CC[C@@H](C2)[C@H]1c1nc(-c2ccc(C(=O)Nc3ccccn3)cc2)c2c(N)nccn12 [Example 23, 4-(8-amino-3-((1R,3S,4S)-2-(but-2-ynoyl)-2-azabicyclo[2.2.1]heptan-3-yl)imidazo [1,5-a]pyrazin-1-yl)-N-(pyridin-2-yl)benzamide]",7.31,1.1,2.4,> 1000
C=CC(=O)N1C2C[C@@H](C1c1nc(-c3ccc(C(C)(O)c4ccccc4)cc3)c3c(N)nccn13)N(C(C)C)C2 (stereo partly shown) [Example 89],7.85,2.4,0.23,96
C=CC(=O)N1C2CCC1(c1nc(-c3ccc(Oc4ccccc4)cc3)c3c(N)nccn13)COC2 (stereo not shown) [Example 104],8.34,3.6,0.42,718
CC#CC(=O)N1C2CCC1(c1nc(-c3ccc(Oc4ccccc4)cc3)c3c(N)nccn13)COC2 (stereo not shown) [Example 105],7.74,8.4,0.41,916
"C=CC(=O)N1CC2(CC2)C[C@H]1c1nc(-c2cccc(C(=O)Nc3ccccn3)c2)c2c(N)nccn12 [Example 124, (S)-3-(3-(5-acryloyl-5-azaspiro[2.4]heptan-6-yl)-8-aminoimidazo[1,5-a]pyrazin-1-yl)-N-(pyridin-2-yl)benzamide]",7.74,11.8,1.5,629
C=CC(=O)N1C2CCC1(c1nc(-c3ccc(C(=O)Nc4cc(C(F)(F)F)ccn4)cc3)c3c(N)nccn13)COC2 (stereo not shown) [Example 48],8.68,0.31,0.46,103
"C=CC(=O)N1CC2(CC2)C[C@H]1c1nc(-c2ccc(Oc3ccccc3)cc2)c2c(N)nccn12 [Example 93, (S)-1-(6-(8-amino-1-(4-phenoxyphenyl)imidazo[1,5-a]pyrazin-3-yl)-5-azaspiro[2.4]heptan-5-yl)prop-2-en-1-one]",8.44,0.65,0.53,318
C=CC(=O)N1C2C[C@@H](C1c1nc(-c3ccc(C(=O)Nc4cc(C(F)(F)F)ccn4)cc3)c3c(N)nccn13)N(C)C2 (stereo partly shown) [Example 54],8.82,0.15,0.64,143
C=CC(=O)N1C2CCC1(c1nc(-c3ccc(C(C)(O)c4ccccc4)cc3)c3c(N)nccn13)COC2 (stereo not shown) [Example 84],7.79,6.8,4.2,48
CC#CC(=O)N1C2CN[C@@H](C2)C1c1nc(-c2ccc(C(=O)Nc3cc(C(F)(F)F)ccn3)cc2)c2c(N)nccn12 (stereo partly shown) [Example 53],8.74,0.75,1.3,166
CC#CC(=O)N1CC2CCCC2C1c1nc(-c2ccc(C(=O)Nc3cc(C(F)(F)F)ccn3)cc2)c2c(N)nccn12 (stereo not shown) [Example 43],8.36,2.3,0.42,217
"C=CC(=O)N1CC2(CC2)C[C@H]1c1nc(-c2ccccc2C(=O)Nc2ccccn2)c2c(N)nccn12 [Example 125, (S)-2-(3-(5-acryloyl-5-azaspiro[2.4]heptan-6-yl)-8-aminoimidazo[1,5-a]pyrazin-1-yl)-N-(pyridin-2-yl)benzamide]",7.24,24.9,8.7,> 1000
"CC#CC(=O)N1CC2(CC2)C[C@H]1c1nc(-c2ccc(Oc3ccccc3)cc2)c2c(N)nccn12 [Example 92, (S)-1-(6-(8-amino-1-(4-phenoxyphenyl)imidazo[1,5-a]pyrazin-3-yl)-5-azaspiro[2.4]heptan-5-yl) but-2-yn-1-one]",8.37,7.6,0.31,712
C=CC(=O)N1C2C[C@@H](C1c1nc(-c3ccc(Oc4ccccc4)cc3)c3c(N)nccn13)N(C(C)=O)C2 (stereo partly shown) [Example 110],7.44,1.2,0.21,198
"C=CC(=O)N1[C@H]2CC[C@@H]1[C@@H](c1nc(-c3ccc(C(=O)Nc4ccccn4)cc3)c3c(N)nccn13)C2 [Example 118, 4-(3-((1R,2S,4S)-7-acryloyl-7-azabicyclo[2.2.1]heptan-2-yl)-8-aminoimidazo[1,5-a]pyrazin-1-yl)-N-(pyridin-2-yl)benzamide]",8.25,3.9,4.1,712
"C=CC(=O)N1CC2CCC1(c1nc(-c3ccc(C(=O)Nc4ccccn4)cc3)c3c(N)nccn13)CC2 [Example 120, 4-(3-(2-acryloyl-2-azabicyclo[2.2.2]octan-1-yl)-8-aminoimidazo[1,5-a]pyrazin-1-yl)-N-(pyridin-2-yl)benzamide]",7.62,6.4,4.1,921
C=CC(=O)N1C(c2nc(-c3ccc(C(=O)Nc4cc(Cl)ccn4)cc3)c3c(N)nccn23)CC2CC21 (stereo not shown) [Example 71],7.92,8.4,1.4,84
"CN(C)C/C=C/C(=O)N1CC2(CC2)C[C@H]1c1nc(-c2ccc(C(=O)Nc3ccccn3)cc2)c2c(N)nccn12 [Example 112, (S,E)-4-(8-amino-3-(5-(4-(dimethylamino)but-2-enoyl)-5-azaspiro[2.4]heptan-6-yl)imidazo[1,5-a]pyrazin-1-yl)-N-(pyridin-2-yl)benzamide]",7.68,0.31,0.41,902
"CC#CC(=O)N1CC2(CC2)C[C@H]1c1nc(-c2ccc(C(C)(O)c3ccccc3)cc2)c2c(N)nccn12 (stereo partly drawn) [Example 73, 1-((6S)-6-(8-amino-1-(4-(1-hydroxy-1-phenylethyl)phenyl)imidazo[1,5-a]pyrazin-3-yl)-5-azaspiro[2.4]heptan-5-yl)but-2-yn-1-one]",7.74,42.3,1.4,124
CC#CC(=O)N1C2CCC1(c1nc(-c3ccc(C(C)(O)c4ccccc4)cc3)c3c(N)nccn13)COC2 (stereo not shown) [Example 85],8.03,18.2,0.97,96
C=CC(=O)N1C[C@H]2[C@@H]([C@H]1c1nc(-c3ccc(C(=O)Nc4cc(Cl)ccn4)cc3)c3c(N)nccn13)C2(C)C [Example 69],8.85,0.62,0.74,124
CC#CC(=O)N1C2C[C@@H](C1c1nc(-c3ccc(Oc4ccccc4)cc3)c3c(N)nccn13)N(C(C)C)C2 (stereo partly shown) [Example 111],7.52,4.3,2.1,672
C=CC(=O)N1C2CN[C@@H](C2)C1c1nc(-c2ccc(C(=O)Nc3ccccn3)cc2)c2c(N)nccn12 (stereo partly shown) [Example 13],8.48,0.38,0.67,138
CC#CC(=O)N1C[C@H]2[C@@H](C1c1nc(-c3ccc(C(=O)Nc4cc(C(F)(F)F)ccn4)cc3)c3c(N)nccn13)C2(C)C (stereo partly shown) [Example 45],7.77,6.4,1.1,285
C=CC(=O)N1C[C@H]2[C@@H](C1c1nc(-c3ccc(C(=O)Nc4cc(C(F)(F)F)ccn4)cc3)c3c(N)nccn13)C2(C)C (stereo partly shown) [Example 44],7.47,7.8,1.3,717
C=CC(=O)N1C2C[C@@H](C1c1nc(-c3ccc(C(=O)Nc4ccccn4)cc3)c3c(N)nccn13)N(C)C2 (stereo partly shown) [Example 15],7.76,64.5,17.6,716
